Test results as given in PubChem BioAssay (NCI).
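GI50 = concentration required for 50% inhibition of growth. Definition used: TGI = concentration required for complete inhibition of growth.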

What was measured:
Test in all cases: DTP human tumour cell line panel, 384-well format
[1] = system: 786-0 renal
[2] = system: A498 renal
[3] = system: A549 NSCLC
[4] = system: ACHN renal
[5] = system: BT-549 breast
[6] = system: CAKI-1 renal
[7] = system: CCRF-CEM leukemia
[8] = system: COLO 205 colon
[9] = system: DU-145 prostate
[10] = system: EKVX NSCLC
[11] = system: HCC-2998 colon
[12] = system: HCT-116 colon
[13] = system: HCT-15 colon
[14] = system: HL-60(TB) leukemia
[15] = system: HOP-62 NSCLC
[16] = system: HOP-92 NSCLC
[17] = system: HS 578T breast
[18] = system: HT29 colon
[19] = system: IGROV1 ovarian
[20] = system: K-562 leukemia
[21] = system: KM12 colon
[22] = system: LOX IMVI melanoma
[23] = system: M14 melanoma
[24] = system: MALME-3M melanoma
[25] = system: MCF7 breast
[26] = system: MDA-MB-435 melanoma
[27] = system: MDA-MB-468 breast
[28] = system: MOLT-4 leukemia
[29] = system: NCI-H226 lung
[30] = system: NCI-H23 lung
[31] = system: NCI-H322M lung
[32] = system: NCI-H460 NSCLC
[33] = system: NCI-H522 lung
[34] = system: NCI/ADR-RES ovarian
[35] = system: OVCAR-3 ovarian
[36] = system: OVCAR-4 ovarian
[37] = system: OVCAR-8 ovarian
[38] = system: PC-3 prostate
[39] = system: RPMI-8226 leukemia
[40] = system: RXF 393 renal
[41] = system: SF-268 CNS
[42] = system: SF-295 CNS
[43] = system: SF-539 CNS
[44] = system: SK-MEL-2 melanoma
[45] = system: SK-MEL-28 melanoma
[46] = system: SK-MEL-5 melanoma
[47] = system: SK-OV-3 ovarian
[48] = system: SN12C renal
[49] = system: SNB-19 CNS
[50] = system: SNB-75 CNS
[51] = system: SW-620 colon
[52] = system: TK-10 renal
[53] = system: U251 glioblastoma
[54] = system: UACC-257 melanoma
[55] = system: UACC-62 melanoma

SMILES: CN(C)CC(C)(CN(C)C)C(=O)/C=C/c1c(Cl)cccc1Cl
- GI50 [1]: 1.79 µM
- TGI [1]: 3.22 µM
- GI50 [2]: 2.29 µM
- TGI [2]: 4.6 µM
- GI50 [3]: 3.72 µM
- TGI [3]: 13.2 µM
- GI50 [4]: 1.88 µM
- TGI [4]: 3.31 µM
- GI50 [5]: 2.52 µM
- TGI [5]: 5.73 µM
- GI50 [6]: 1.81 µM
- TGI [6]: 3.23 µM
- GI50 [7]: 1.58 µM
- TGI [7]: 2.96 µM
- GI50 [8]: 2.17 µM
- TGI [8]: 3.66 µM
- GI50 [9]: 5.18 µM
- TGI [9]: 16 µM
- GI50 [10]: 4.28 µM
- TGI [10]: 14.1 µM
- GI50 [11]: 2.24 µM
- TGI [11]: 6.9 µM
- GI50 [12]: 2.03 µM
- TGI [12]: 3.53 µM
- GI50 [13]: 1.86 µM
- TGI [13]: 3.33 µM
- GI50 [14]: 1.01 µM
- TGI [14]: 2.18 µM
- GI50 [15]: 2.32 µM
- TGI [15]: 3.96 µM
- GI50 [16]: 2.17 µM
- TGI [16]: 3.65 µM
- GI50 [17]: 2.17 µM
- TGI [17]: 4.24 µM
- GI50 [18]: 1.87 µM
- TGI [18]: 3.41 µM
- GI50 [19]: 1.87 µM
- TGI [19]: 3.36 µM
- GI50 [20]: 4.98 µM
- TGI [20]: 15.9 µM
- GI50 [21]: 1.22 µM
- TGI [21]: 2.92 µM
- GI50 [22]: 1.67 µM
- TGI [22]: 3.15 µM
- GI50 [23]: 2.09 µM
- TGI [23]: 4 µM
- GI50 [24]: 2.16 µM
- TGI [24]: 3.61 µM
- GI50 [25]: 0.512 µM
- TGI [25]: 1.76 µM
- GI50 [26]: 3.9 µM
- TGI [26]: 11.6 µM
- GI50 [27]: 2.1 µM
- TGI [27]: 3.59 µM
- GI50 [28]: 1.54 µM
- TGI [28]: 2.89 µM
- GI50 [29]: 1.76 µM
- TGI [29]: 3.34 µM
- GI50 [30]: 2.47 µM
- TGI [30]: 5.04 µM
- GI50 [31]: 3.86 µM
- TGI [31]: 12.3 µM
- GI50 [32]: 1.97 µM
- TGI [32]: 3.59 µM
- GI50 [33]: 1.71 µM
- TGI [33]: 3.09 µM
- GI50 [34]: 2.14 µM
- TGI [34]: 3.82 µM
- GI50 [35]: 1.91 µM
- TGI [35]: 3.37 µM
- GI50 [36]: 1.81 µM
- TGI [36]: 3.21 µM
- GI50 [37]: 1.95 µM
- TGI [37]: 3.41 µM
- GI50 [38]: 2.52 µM
- TGI [38]: 5.2 µM
- GI50 [39]: 0.2 µM
- TGI [39]: 0.346 µM
- GI50 [40]: 2.13 µM
- TGI [40]: 3.59 µM
- GI50 [41]: 5.61 µM
- TGI [41]: 15.8 µM
- GI50 [42]: 11.4 µM
- TGI [42]: 23.6 µM
- GI50 [43]: 1.9 µM
- TGI [43]: 3.33 µM
- GI50 [44]: 2.07 µM
- TGI [44]: 3.54 µM
- GI50 [45]: 10 µM
- TGI [45]: 21.7 µM
- GI50 [46]: 1.39 µM
- TGI [46]: 2.98 µM
- GI50 [47]: 4.38 µM
- TGI [47]: 15.4 µM
- GI50 [48]: 1.88 µM
- TGI [48]: 3.29 µM
- GI50 [49]: 4.18 µM
- TGI [49]: 12.4 µM
- GI50 [50]: 5.16 µM
- TGI [50]: 11.3 µM
- GI50 [51]: 2.01 µM
- TGI [51]: 3.48 µM
- GI50 [52]: 1.61 µM
- TGI [52]: 3.12 µM
- GI50 [53]: 2.12 µM
- TGI [53]: 3.74 µM
- GI50 [54]: 1.95 µM
- TGI [54]: 3.81 µM
- GI50 [55]: 2.16 µM
- TGI [55]: 4.2 µM
